The results in this text go back to patent publication US9273095B2, “Antibiotic peptide and preparation method therefor and application therefor” (priority 2011, dated 2016).

One series deals with candida albicans. Nature of the series: microbe, parasite or virus in culture. The format is cell-based. The method in brief:
(§1)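 Broth dilution in RPMI-1640 with PL-13 peptide diluted 10-fold from stock; inoculum 1-3×10^3 CFU/ml in the test. Strains activated at 60% humidity, 25 °C for aspergillus or 37 °C for candida; living and blank control wells included.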

For a further series, the system named is aspergillus fumigatus. In words: microbe, parasite or virus in culture. The format is cell-based. The method in brief:
as §1

Another series has as its system candida glabrata. Nature of the series: microbe, parasite or virus in culture. The format is cell-based. The method in brief: as §1
Another series has as its system aspergillus flavous. In words: microbe, parasite or virus in culture. The format is cell-based. The method in brief:
as §1

The subject of a further series is candida tropicalis. Nature of the series: microbe, parasite or virus in culture. The format is cell-based. The method in brief: as §1
Series [1] can be described thus: RP-HPLC temperature profiling: hydrophobicity and self-association. Conditions: for tR(min) 5° C. / tR(min) 80° C.: RP-HPLC temperature profiling; for PA (min), association parameter: maximal normalized retention time difference within 5-80° C., self-association ability; for tR(min) Max: maximal retention time during temperature profiling 5-80° C.; for ΔtR(X-Peptide C)(min) 5° C.: retention time difference to control peptide C at 5° C.; for ΔtR(X-Peptide C)(min) 5° C. / ΔtR(X-Peptide C)(min) 80° C.: relative hydrophobicity; for ΔtR(X-Peptide C)(min) 80° C.: retention time difference to control peptide C at 80° C.; for Hydrophobicity tR5: retention time in RP-HPLC at pH 2, 5° C.; for Hydrophobicity tR80: retention time in RP-HPLC at pH 2, 80° C. It counts as physicochemical. As to the method: Peptides are analyzed on an Agilent 1200 series liquid chromatograph (Little Falls, Del.). Runs are performed on a Zorbax 300 SB-C8 column (150×4.6 mm I.D.; 5 μm particle size, 300 Å pore size) from Agilent Technologies using linear AB gradient (1% acetonitrile/min) and a flow rate of 1 ml/min, where solvent A is 0.05% aqueous TFA, pH 2 and solvent B is 0.05% TFA in acetonitrile.
We further use temperature profiling during RP-HPLC to determine the self-association ability of various analogs of PL-13 (SEQ ID NO: 1) which would occur through interaction of the non-polar faces of these amphipathic peptides α-helices. We use 50% TFE aqueous acetonitrile and hydrophobic conditions in the reversed-phase column (hydrophobic stationary phase and the hydrophobic organic solvent in the mobile phase) since the hydrophobic environment of a reversed-phase column also could induce α-helical structure. Since its introduction, the technique of RP-HPLC temperature profiling has been applied on several types of molecules, including cyclic β-sheet peptides, monomeric α-helices and α-helices that dimerize, as well as α-helices that dimerize to form coiled-coils. Although peptides are eluted from a reversed-phase column mainly by an adsorption/desorption mechanism, even a peptide strongly bound to a hydrophobic stationary phase will partition between the matrix and the mobile phase when the acetonitrile content becomes high enough during gradient elution. In summary, the mechanism is based on four assumptions: (i) at low temperature, just as an amphipathic α-helical peptide is able to dimerize in aqueous solution (through its hydrophobic, non-polar face), it will dimerize in solution during partitioning in reversed-phase chromatography; (ii) at higher temperatures, the monomer-dimer equilibrium favors the monomer as the dimer is disrupted; (iii) at sufficiently high temperatures, only monomer is present in solution; and (iv) peptide is always bound in its monomeric helical form to the hydrophobic stationary phase, i.e., the dimer can only be present in solution and disruption of the dimer is required for rebinding to the RP-HPLC matrix.
([θ]222=−3,950). Since peptide C is a monomeric random coil peptide in both aqueous and hydrophobic media, its retention behavior over the temperature range 5-80° C. represents only general temperature effects on peptide retention behavior, i.e., a linear decrease in peptide retention time with increasing temperature due to greater solute diffusivity and enhanced mass transfer between the stationary and mobile phases at higher temperatures. Thus, after normalization to the retention times of peptide C, the retention behavior of the peptides only represents peptide self-association ability. Note that the higher the PA value, the greater the self-association ability. The order of peptide self-association ability of the three pairs of peptide enantiomers is identical to the order of peptide hydrophobicity. Apart from the decrease in retention time due to the general temperature effects noted above, destruction of the α-helix will also occur with increasing temperature, resulting in reduced retention times as the peptides become increasingly random coils.
The retention time data for the peptides is shown in Table 6 which records retention times at 5° C., the maximal retention times and retention times at 80° C. during the temperature profiling. Temperatures of 5-80° C. are the lower and upper temperature limits of temperature profiling in RP-HPLC, representing polymerization of the peptides at 5° C. and the monomerization of peptides at 80° C. due to denaturation of peptides by high temperature and dissociation of the polymers. The maximal retention times represent the threshold points at which peptides totally transform from polymeric to monomeric form. […]

[2] abbreviates: JLC 30506 aspergillus fumigatus.
Setting [3] is: JLC 30883 aspergillus fumigatus.

In brackets after ≈: the same amount, converted by molar mass. Like-named read-outs stand apart in the source and are kept apart here. Non-standard residues stand in square brackets, D forms with d. Residues, ends and D or L forms follow the SMILES beside them.

Consider `CC[C@@H](C)[C@@H](NC(=O)[C@@H](CCCCN)NC(=O)[C@@H](CO)NC(=O)[C@@H](Cc1ccccc1)NC(=O)[C@@H](CC(C)C)NC(=O)[C@@H](CCCCN)NC(=O)[C@@H](CCC(=O)O)NC(=O)[C@@H](CC(C)C)NC(=O)[C@@H](CCCNC(=N)N)NC(=O)[C@@H](CCCCN)NC(=O)[C@@H](Cc1ccccc1)NC(C)=O)C(=O)N[C@H](Cc1c[nH]c2ccccc12)C(=O)N[C@H](CC(N)=O)C(=O)N[C@H](Cc1c[nH]c2ccccc12)C(=O)N[C@H](CCCCN)C(N)=O` [PL-17] (Ac-[dF][dK][dR][dL][dE][dK][dL][dF][dS][dK][dI][dW][dN][dW][dK]-NH2), for which the Minimal inhibitory concentration in the series on candida albicans (JLC 33659 candida albicans) was determined as 4 µg/mL (≈ 1.94 µM); in the series with candida albicans (JLC 33660 candida albicans), 4 µg/mL (≈ 1.94 µM); with aspergillus fumigatus (setting [2]), 32 µg/mL (≈ 15.5 µM); in the series on aspergillus fumigatus (setting [3]), 32 µg/mL (≈ 15.5 µM); with candida glabrata (JLC 30367 candida glabrata), 4 µg/mL (≈ 1.94 µM); in the series with candida glabrata (JLC 31512 candida glabrata), 8 µg/mL (≈ 3.88 µM). Further, the Minimal inhibitory concentration in the series with aspergillus flavous (JLC 30784 aspergillus flavous) was more than 64 µg/mL; in the series with aspergillus flavous (JLC 40437 aspergillus flavous) it was more than 64 µg/mL; with candida tropicalis (JLC 31379 candida tropicalis) it was 2 µg/mL (≈ 0.969 µM); in the series with candida tropicalis (JLC 31384 candida tropicalis), 2 µg/mL (≈ 0.969 µM).

In the series with aspergillus fumigatus, `CC(=O)N[C@H](Cc1ccccc1)C(=O)N[C@H](CCCCN)C(=O)N[C@H](CCCCN)C(=O)N[C@H](Cc1ccccc1)C(=O)N[C@H](CCCCN)C(=O)N[C@H](CCCCN)C(=O)N[C@H](CC(C)C)C(=O)N[C@H](CC(C)C)C(=O)N[C@H](CO)C(=O)N[C@H](CCCCN)C(=O)N[C@H](CC(C)C)C(=O)N[C@H](Cc1c[nH]c2ccccc12)C(=O)N[C@H](CC(N)=O)C(=O)N[C@H](Cc1c[nH]c2ccccc12)C(=O)N[C@H](CCCCN)C(N)=O` [PL-43] (Ac-[dF][dK][dK][dF][dK][dK][dL][dL][dS][dK][dL][dW][dN][dW][dK]-NH2; N-terminus and C-terminus assumed) had a Minimal inhibitory concentration of 64 µg/mL (≈ 31.4 µM). Also, the Minimal inhibitory concentration in the series on candida glabrata came to 32 µg/mL (≈ 15.7 µM). In addition, the Minimal inhibitory concentration in the series on aspergillus flavous was more than 64 µg/mL. In series [1], the “tR(min) 5° C.” value came out at 41.64 min; the “tR(min) 80° C.” value is 40.52 min; the “PA (min), association parameter” value came out at 1.65 min; the “tR(min) Max” value is recorded as 41.97 min. Moreover, in series [1], the “ΔtR(X-Peptide C)(min) 5° C.” value is on record as 19.08 min, the “ΔtR(X-Peptide C)(min) 80° C.” value is recorded as 20.60 min, the “Hydrophobicity tR5” value is on record as 41.64 min and the “Hydrophobicity tR80” value is 40.52 min.

In the series on candida albicans, Ac-FKKLKKLFSKLWNWK-NH2 [PL-13] registered a Minimal inhibitory concentration of 8 µg/mL. The molecule further showed a Minimal inhibitory concentration in the series on aspergillus fumigatus of 32 µg/mL. In addition, in the series with aspergillus flavous, the Minimal inhibitory concentration was more than 64 µg/mL. Moreover, in series [1], the “tR(min) 5° C.” value was 35.75 min; the “tR(min) 80° C.” value was 33.37 min; the “PA (min), association parameter” value is reported as 0.56 min; the “tR(min) Max” value stood at 35.75 min. Further, in series [1], the “ΔtR(X-Peptide C)(min) 5° C.” value is listed as 13.19 min, the “ΔtR(X-Peptide C)(min) 80° C.” value worked out at 13.45 min, the “Hydrophobicity tR5” value was found to be 35.75 min and the “Hydrophobicity tR80” value stood at 33.37 min.

For the molecule `CC(=O)N[C@H](Cc1ccccc1)C(=O)N[C@H](CCCCN)C(=O)N[C@H](CCCCN)C(=O)N[C@H](CC(C)C)C(=O)N[C@H](CCCCN)C(=O)N[C@H](CCCCN)C(=O)N[C@H](CC(C)C)C(=O)N[C@H](Cc1ccccc1)C(=O)N[C@H](CO)C(=O)N[C@H](CCCCN)C(=O)N[C@H](CC(C)C)C(=O)N[C@H](Cc1c[nH]c2ccccc12)C(=O)N[C@H](CC(N)=O)C(=O)N[C@H](Cc1c[nH]c2ccccc12)C(=O)N[C@H](CCCCN)C(N)=O` [PL-18] (Ac-[dF][dK][dK][dL][dK][dK][dL][dF][dS][dK][dL][dW][dN][dW][dK]-NH2), the Minimal inhibitory concentration in the series with candida albicans turned out to be 4 µg/mL (≈ 1.97 µM). The molecule also displayed a Minimal inhibitory concentration in the series on aspergillus fumigatus of 16 µg/mL (≈ 7.86 µM). The Minimal inhibitory concentration in the series with candida glabrata stood at 4 µg/mL (≈ 1.97 µM). This molecule also returned a Minimal inhibitory concentration with aspergillus flavous of more than 64 µg/mL. The Minimal inhibitory concentration in the series with candida tropicalis came to 2 µg/mL (≈ 0.983 µM). Also, in series [1], the “tR(min) 5° C.” value came out at 35.75 min; the “tR(min) 80° C.” value stood at 33.37 min; the “PA (min), association parameter” value is reported as 0.56 min; the “tR(min) Max” value turned out to be 35.75 min. In addition, in series [1], the “ΔtR(X-Peptide C)(min) 5° C.” value was 13.19 min, the “ΔtR(X-Peptide C)(min) 80° C.” value is on record as 13.45 min, the “Hydrophobicity tR5” value is given as 35.75 min and the “Hydrophobicity tR80” value stood at 33.37 min.

Regarding Ac-FKRLEKLFSKIWNWK-NH2 [PL-12], the Minimal inhibitory concentration in the series on candida albicans (JLC 33659 candida albicans) is 16 µg/mL; in the series with candida albicans (JLC 33660 candida albicans), 16 µg/mL; in the series with aspergillus fumigatus (setting [2]) it was 32 µg/mL; in the series on aspergillus fumigatus (setting [3]), 32 µg/mL; in the series on candida glabrata (JLC 30367 candida glabrata), 32 µg/mL; in the series with candida glabrata (JLC 31512 candida glabrata), 32 µg/mL. Besides, the Minimal inhibitory concentration in the series with aspergillus flavous (JLC 30784 aspergillus flavous) is more than 64 µg/mL; in the series on aspergillus flavous (JLC 40437 aspergillus flavous) it was more than 64 µg/mL; in the series on candida tropicalis (JLC 31379 candida tropicalis), 4 µg/mL; in the series with candida tropicalis (JLC 31384 candida tropicalis) it was 8 µg/mL. Moreover, the “Hydrophobicity tR5” value in series [1] is 38.04 min. The “Hydrophobicity tR80” value in series [1] worked out at 36.10 min.
